Six molecules from patent US10624972B2, “Conjugates for treating diseases” (priority 2015, dated 2020) can be followed below.

The test system of series [1] is MDA-MB-231 tumors. The series is described as follows: TNBC tumor assay (MDA-MB-231 xenograft). It counts as in vivo, nu/nu mice. The note with it: 2 μmol/kg TIW for two weeks. The text has this: General. […] A PR is observed where tumor volume, as defined herein, decreases from a previous high during the observation period, though regrowth may occur. A CR is observed where tumor volume, as defined herein, decreases to zero during the observation period, though regrowth may occur.
METHOD EXAMPLE. TNBC Tumor Assay. Triple negative breast cancer (TNBC) is a subtype characterized by lack of gene expression for estrogen, progesterone and Her2/neu. TNBC is difficult to treat, and the resulting death rate in patients is reportedly disproportionately higher than for any other subtype of breast cancer. A TNBC xenograft model was generated in an analogous way to the KB and M109 models described herein by implanting MDA-MB-231 breast cancer cells in nu/nu mice. […] Test animals (5/group) were injected intravenously, generally three times a week (TIW), for 2-3 weeks with varying doses, such as with 1 μmol/kg to 5 μmol/kg, of the drug delivery conjugate or with an equivalent dose volume of PBS (control), unless otherwise indicated. Dosing solutions were prepared fresh each day in PBS and administered through the lateral tail vein of the mice.

Series [2] is described as follows: Toxicity as measured by weight loss (test animal total body weight). It is filed as in vivo, mice. As to the method:
METHOD. Toxicity as Measured by Weight Loss. The percentage weight change of the test animals was determined on selected days post-tumor inoculation (PTI), and during dosing. The results were graphed.

In series [3] the test system is KB cells. Briefly: cells. It is filed as cell-based, Human. As to the method:
METHOD. Inhibition of Cellular DNA Synthesis. The conjugates described herein were evaluated using an in vitro cytotoxicity assay that predicted the ability of the drug to inhibit the growth of the corresponding targeted cells, such as, but not limited to the following
It is to be understood that the choice of cell type can be made on the basis of the susceptibility of those selected cells to the drug that forms the conjugate, and the relative expression of the cell surface receptor or target antigen. The test conjugates were conjugates of a cell surface receptor or target antigen binding compound and PBD prodrugs, poly-PBD prodrugs, and mixed PBDs, as described herein. The test cells were exposed to varying concentrations of the conjugates, and optionally also in the absence or presence of at least a 100-fold excess of the unconjugated cell surface receptor or target antigen binding compound for competition studies to assess activity as being specific to the cell surface receptor or target antigen.
EXAMPLE. Conjugates of PBD prodrugs, poly-PBD prodrugs, and mixed PBDs described herein were active against KB cells. The activity was mediated by the folate receptor as indicated by competition experiments using co-administered folic acid. KB cells were exposed for up to 7 h at 37° C. to the indicated concentrations of folate-drug conjugate in the absence or presence of at least a 100-fold excess of folic acid. The cells were then rinsed once with fresh culture medium and incubated in fresh culture medium for 72 hours at 37° C. Cell viability was assessed using a ^3H-thymidine incorporation assay. For conjugates described herein, dose-dependent cytotoxicity was generally measurable, and in most cases, the IC50 values (concentration of drug conjugate required to reduce ^3H-thymidine incorporation into newly synthesized DNA by 50%) were in the low nanomolar range.

Series [4] deals with KB-CR2000 tumors. The series is described as follows: Cisplatin therapy of cisplatin-resistant KB-CR2000 tumors. It is filed as in vivo. The note with it: high, toxic dose of cisplatin. The text has this:
METHOD. Human cisplatin-resistant cell line.

Setting [5] is: KB tumor study, 2 μmol/kg TIW for two weeks.

Entries after “also recorded” stand apart in the source; their conditions may differ. Like-named read-outs stand apart in the source and are kept apart here. *1 amine or outer side, *2 acyl side, *3 side chain or, on linkers, in order; H or OH if unused. Where a SMILES comes first, the peptide text is derived from it. The star is where a group is joined. X1 = COc1ccc(C2=CN(C(=O)c3cc(OC)c(OC)cc3N)[C@H](C3OCCN3C(=O)OCCS*)C2)cc1; Pteroyl = Nc1nc2ncc(CNc3ccc(C(=O)*)cc3)nc2c(=O)[nH]1; γGlu = O=C(O)[C@H](CCC(=O)[*:2])N[*:1]

Usually IC50 stands for the midpoint of a concentration-inhibition curve. Turning to `C=C1C[C@H]2C(=O)Nc3cc(OCCCCCOc4cc(N)c(C(=O)N5CC(=C)C[C@H]5C5OCCN5C(=O)OCCSSC[C@H](NC(=O)[C@H](CC(=O)O)NC(=O)[C@H](CC(=O)O)NC(=O)[C@H](CCCNC(=N)N)NC(=O)[C@H](CC(=O)O)NC(=O)CC[C@H](NC(=O)c5ccc(NCc6cnc7nc(N)[nH]c(=O)c7n6)cc5)C(=O)O)C(=O)O)cc4OC)c(OC)cc3C(=O)N2C1` (stereo partly shown) [EC1744], in series [1], the “MDA-MB-231 tumors compared to untreated control” value was “decreases MDA-MB-231 tumors; also recorded: decreased triple negative breast cancer (TNBC) MDA-MB-231 tumors”; the “complete response, number of test animals, MDA-MB-231 tumors” value was 5/5; the “cure, number of test animals, MDA-MB-231 tumors” value was 4/5. In series [2] (setting [5]), the “toxicity as evidenced by test animal total body weight” value (shortened to “toxicity as evidenced”) is “Toxicity was not observed”. In addition, the “toxicity as evidenced” value in series [2] (MDA-MB-231 tumor study, 2 μmol/kg TIW for two weeks) is “Toxicity was not observed”. The concentration for half-maximal inhibition (IC50) in series [3] (3 h) is 1.2 nM.

On to `N.N.[Cl][Pt][Cl]` [cisplatin], for which the “tumor response to cisplatin therapy” value in series [4] is “did not produce even a single partial response”.

In the case of `C=C1C[C@@H](C2OCCN2C(=O)OCCSSC[C@@H](NC(=O)[C@H](CCC(=O)NC[C@H](O)[C@@H](O)[C@H](O)[C@H](O)CO)NC(=O)[C@@H](CCC(=O)O)NC(=O)[C@H](CCC(=O)NC[C@H](O)[C@@H](O)[C@H](O)[C@H](O)CO)NC(=O)[C@@H](CCC(=O)O)NC(=O)[C@H](CCC(=O)NC[C@H](O)[C@@H](O)[C@H](O)[C@H](O)CO)NC(=O)CC[C@H](NC(=O)c2ccc(NCc3cnc4nc(N)[nH]c(=O)c4n3)cc2)C(=O)O)C(=O)O)N(C(=O)c2cc(OC)c(OCCCCCOc3ccc(-c4nc5ccc(-c6nc7cc(N8CCN(C)CC8)ccc7[nH]6)cc5[nH]4)cc3)cc2N)C1` (stereo partly shown) [EC1879], the “toxicity as evidenced” value in series [2] (KB tumor study, 2 μmol/kg TIW for 1 week) was “Minor toxicity was observed”; in series [2] (setting [5]), “Toxicity was not observed”. Besides, half-maximal inhibition in series [3] (3 h) (IC50) was put at 0.56 nM.

For the molecule `C=C1C[C@H]2C=Nc3cc(OCCCCCOc4cc(N)c(C(=O)N5CC(=C)C[C@H]5C5OCCN5C(=O)OCCSSC[C@H](NC(=O)[C@H](CC(=O)O)NC(=O)[C@H](CC(=O)O)NC(=O)[C@H](CCCNC(=N)N)NC(=O)[C@H](CC(=O)O)NC(=O)CC[C@H](NC(=O)c5ccc(NCc6cnc7nc(N)[nH]c(=O)c7n6)cc5)C(=O)O)C(=O)O)cc4OC)c(OC)cc3C(=O)N2C1` (stereo partly shown) [EC1788], the “toxicity as evidenced” value was “Minor toxicity was observed” in series [2] (KB tumor study, 0.2 μmol/kg TIW for two weeks) and “Minor toxicity was observed” in series [2] (KB tumor study, 0.4 μmol/kg BIW for 2 weeks). In addition, the IC50 in series [3] (KB cells, 3H-thymidine incorporation, read-out: IC50 KB Cells) amounted to 0.18 nM.

As to `C=C1C[C@@H](C2OCCN2C(=O)OCCSSC[C@@H](NC(=O)[C@H](CCC(=O)NC[C@H](O)[C@@H](O)[C@H](O)[C@H](O)CO)NC(=O)[C@@H](CCC(=O)O)NC(=O)[C@H](CCC(=O)NC[C@H](O)[C@@H](O)[C@H](O)[C@H](O)CO)NC(=O)[C@@H](CCC(=O)O)NC(=O)[C@H](CCC(=O)NC[C@H](O)[C@@H](O)[C@H](O)[C@H](O)CO)NC(=O)CC[C@H](NC(=O)c2ccc(NCc3cnc4nc(N)[nH]c(=O)c4n3)cc2)C(=O)O)C(=O)O)N(C(=O)c2cc(OC)c(OCCCCCOc3cc(N)c(C(=O)N4CC(=C)C[C@H]4C4OCCN4C(=O)OCC4c5ccccc5-c5ccccc54)cc3OC)cc2N)C1` (stereo partly shown) [EC1884], the “toxicity as evidenced” value in series [2] (setting [5]) is reported as “Toxicity was not observed”. In series [3] (3 h), this molecule returned an IC50 of 0.36 nM.

In the case of `COc1ccc(C2=CN(C(=O)c3cc(OC)c(OC)cc3N)[C@H](C3OCCN3C(=O)OCCSSC[C@H](NC(=O)[C@H](CC(=O)O)NC(=O)[C@H](CC(=O)O)NC(=O)[C@H](CCCNC(=N)N)NC(=O)[C@H](CC(=O)O)NC(=O)CC[C@H](NC(=O)c3ccc(NCc4cnc5nc(N)[nH]c(=O)c5n4)cc3)C(=O)O)C(=O)O)C2)cc1` (stereo partly shown) [EC1629] ({Pteroyl-γGlu}-DRDDC(X1)-OH), the “toxicity as evidenced” value in series [2] (setting [5]) is reported as “Toxicity was not observed”.
